# Source: patent US6355657B1, “System for percutaneous delivery of opioid analgesics” (Atrix Laboratories, Inc., priority 1998, dated 2002)
# Where “and” joins values, the source holds several entries; their conditions need not be identical. Equal entries are not always repeated. Structures can show the parent of a compound that is named as a salt. Where two headings read alike, the source gives them in different places.
# Tests used:
# [1] = cited from earlier work
# [2] = Solubility of loperamide hydrochloride in solvents and solvent mixtures (titration to cloud point, HPLC of saturated solutions); type: physicochemical
# Description: The solubility studies of loperamide hydrochloride were initiated using the formulation systems shown in Table I through multiple titrations confirmned by HPLC analysis of saturated solutions. For systems having at least 5% loperamide hydrochloride solubility, the transport of loperamide hydrochloride across the skin was characterized by 500 μL and 20 μL dosing of excised human cadaver skin using a Franz in vitro skin diffusion cell.
# Solvent systems were mixed according to weight. For combinations of solvents that were single phase, loperamide hydrochloride was added in 0.1% increments until the system clouded. This was taken as the approximate saturation value for loperamide hydrochloride in that system. The system was then allowed to remain undisturbed for at least 24 hours. Often large crystals of loperamide hydrochloride would form upon standing. This solution was then filtered, appropriately diluted and assayed according to the HPLC method described below.
# [3] = Solubility of loperamide hydrochloride in the receptor solution (spiked receptor solutions); type: physicochemical; details: 10% (v/v) N-methyl-2-pyrrolidone in water
# Source text: The receptor solution was 10% (v/v) N-methyl-2-pyrrolidone in water.
smiles,measurement,setting,value
"CN(C)C(=O)C(CCN1CCC(O)(c2ccc(Cl)cc2)CC1)(c1ccccc1)c1ccccc1 [loperamide hydrochloride, 4-(p-chlorophenyl)-4-hydroxy-N,N-dimethyl-α,(α-diphenyl-1-piperidinebutyramide hydrochloride]",solubility,[1]; 2-butanone,0.18 grams per 100 mL solvent
same,solubility,[1]; 2-propanol,1.11 grams per 100 mL solvent
same,solubility,[1]; 4-methyl-2-pentanone,0.020 grams per 100 mL solvent
same,solubility,"[1]; N,N-dimethylformamide",10.3 grams per 100 mL solvent
same,solubility,[1]; acetone,0.20 grams per 100 mL solvent
same,solubility,[1]; citrate-phosphate buffer (pH 6.1),0.008 grams per 100 mL solvent
same,solubility,[1]; citrate-phosphate buffer (pH 7.9),less than 0.001 grams per 100 mL solvent
same,solubility,[1]; dichloromethane,35.1 grams per 100 mL solvent
same,solubility,[1]; diethyl ether,less than 0.001 grams per 100 mL solvent
same,solubility,[1]; dimethylsulfoxide,20.5 grams per 100 mL solvent
same,solubility,[1]; ethanol,5.37 grams per 100 mL solvent
same,solubility,[1]; ethyl acetate,0.035 grams per 100 mL solvent
same,solubility,[1]; hexane,less than 0.001 grams per 100 mL solvent
same,solubility,[1]; methanol,28.6 grams per 100 mL solvent
same,solubility,[1]; polyethylene glycol 400,1.40 grams per 100 mL solvent
same,solubility,[1]; propylene glycol,5.64 grams per 100 mL solvent
same,solubility,[1]; tetrahydrofuran,0.32 grams per 100 mL solvent
same,solubility,[1]; toluene,0.001 grams per 100 mL solvent
same,solubility,[1]; water (at physiological pH),0.002 grams per 100 mL solvent
same,solubility,[1]; water (pH 1.7),0.14 grams per 100 mL solvent
same,loperamide hydrochloride solubility,[2]; 1:1:1 propylene glycol:ethanol:ethyl acetate,greater than 5 % (w/w)
same,loperamide hydrochloride solubility,[2]; 1:1:4:3 N-methyl-2-pyrrolidone:propylene glycol:alcohol:water,greater than 6 % (w/w)
same,loperamide hydrochloride solubility,[2]; 1:1:4:5 N-methyl-2-pyrrolidone:ethyl acetate:ethanol:water,greater than 5 % (w/w)
same,loperamide hydrochloride solubility,"[2]; 10% (v/v) water, 18% (v/v) N-methyl-2-pyrrolidone and 72% (v/v) ethanol ternary blend (FIG. 4)",19 % (w/w)
same,loperamide hydrochloride solubility,[2]; 60/40 propylene glycol/ethyl acetate solvent blend (FIG. 2),18 % (w/w)
same,loperamide hydrochloride solubility,"[2]; combination of propylene carbonate and ethanol, ratio not stated (FIG. 1)",exceeded 20 % (w/w)
same,loperamide hydrochloride in solution,"[2]; formulations of mixtures of water, alcohols and organic solvents, ambient temperatures",up to 30 % (w/w)
same,loperamide hydrochloride solubility,"[2]; most non-aqueous organic solvents (exceptions NMP, propylene glycol, ethanol)",less than 1 % (w/w)
same,Loperamide hydrochloride Solubility (w/w),"[2]; solvent Ethanol, hydrochloride",10 % (w/w)
same,Loperamide hydrochloride Solubility (w/w),[2]; solvent Isopropyl Myristate,0.001% (w/w)
same,Loperamide hydrochloride Solubility (w/w),"[2]; solvent N-methyl-2-pyrrolidone, hydrochloride",16 % (w/w)
same,Loperamide hydrochloride Solubility (w/w),"[2]; solvent Propylene Glycol, hydrochloride",9 % (w/w) and 8 % (w/w)
same,loperamide hydrochloride solubility,"[2]; the solvents of Table 1 except N-methyl-2-pyrrolidone, ethanol and propylene glycol",≤ 0.5 % (w/w)
same,solubility of loperamide hydrochloride in receptor solution,[3],greater than 380 ppm
